Legend:
Type in all cases: in vivo
[1] = test system: Diamond back moth (Plutella xylostella); experiment: Diamond back moth leaf-dip test on cabbage leaves; conditions: cabbage leaves dipped, 3rd instar larvae, 72 hours after treatment, read-out: mortality in comparison with untreated controls
Description: The active compound was dissolved at the desired concentration in a mixture of 1:1 (vol:vol) distilled water: acetone. Surfactant (Kinetic HV) was added at a rate of 0.01% (vol/vol). The test solution was prepared on the day of use.
Leaves of cabbage were dipped in test solution and air-dried. Treated leaves were placed in petri dishes lined with moist filter paper and inoculated with ten 3rd instar larvae. Mortality was recorded 72 hours after treatment. Feeding damages were also recorded using a scale of 0-100%.

[2] = test system: Green Peach Aphid (Myzus persicae); experiment: Green peach aphid systemic test, artificial diet under membrane in 96-well microtiter plates; conditions: 72 h, adult aphids on treated artificial diet, 3 days, read-out: mortality in comparison with untreated controls
Excerpt: For evaluating control of green peach aphid (Myzus persicae) through systemic means, the test unit consisted of 96-well-microtiter plates containing liquid artificial diet under an artificial mem brane.
The compounds were formulated using a solution containing 75% v/v water and 25% v/v DMSO. Different concentrations of formulated compounds were pipetted into the aphid diet, using a custom built pipetter, at two replications.
After application, 5 - 8 adult aphids were placed on the artificial membrane inside the microtiter plate wells. The aphids were then allowed to suck on the treated aphid diet and incubated at about 23 ± 1°C and about 50 ± 5 % relative humidity for 3 days. Aphid mortality and fecundity was then visually assessed.

[3] = test system: Tobacco budworm (Heliothis virescens); experiment: Tobacco budworm test, insect diet with eggs in 96-well microtiter plates; conditions: 120 h, egg and larval mortality, 5 days, read-out: mortality in comparison with untreated controls
Description: For evaluating control of tobacco budworm (Heliothis virescens), the test unit consisted of 96-well-microtiter plates containing an insect diet and 15-25 H. virescens eggs.
The compounds were formulated using a solution containing 75% v/v water and 25% v/v DMSO. Different concentrations of formulated compounds were sprayed onto the insect diet at 10 µl, using a custom-built micro atomizer, at two replications.
After application, microtiter plates were incubated at about 28 ± 1°C and about 80 ± 5 % relative humidity for 5 days. Egg and larval mortality was then visually assessed.

[4] = test system: Boll weevil (Anthonomus grandis); experiment: Boll weevil test, insect diet with eggs in 96-well microtiter plates; conditions: 120 h, egg and larval mortality, 5 days, read-out: mortality in comparison with untreated controls
Description: For evaluating control of boll weevil (Anthonomus grandis), the test unit consisted of 96-well-microtiter plates containing an insect diet and 5-10 A. grandis eggs.
The compounds were formulated using a solution containing 75% v/v water and 25% v/v DMSO. Different concentrations of formulated compounds were sprayed onto the insect diet at 5 µl, using a custom-built micro atomizer, at two replications.
After application, microtiter plates were incubated at about 25 ± 1°C and about 75 ± 5 % relative humidity for 5 days. Egg and larval mortality was then visually assessed.

[5] = test system: Orchid thrips (Dichromothrips corbetti); experiment: Orchid thrips floral-immersion test; conditions: adult thrips on dipped orchid petals, 72 hours after treatment, read-out: mortality in comparison with untreated controls
Description: Dichromothrips corbetti adults used for bioassay were obtained from a colony maintained continuously under laboratory conditions. For testing purposes, the test compound is diluted in a 1:1 mixture of acetone:water (vol:vol), plus Kinetic HV at a rate of 0.01% v/v.
Thrips control potency of each compound was evaluated by using a floral-immersion technique. All petals of individual, intact orchid flowers were dipped into treatment solution and allowed to dry in Petri dishes. Treated petals were placed into individual re-sealable plastic along with about 20 adult thrips. All test arenas were held under continuous light and a temperature of about 28°C for duration of the assay. After 3 days, the numbers of live thrips were counted on each petal. The percent mortality was recorded 72 hours after treatment.

[6] = test system: Yellow fever mosquito (Aedes aegypti); experiment: whole plant or invertebrate; conditions: 48 h, larval mortality, 2 days, read-out: mortality in comparison with untreated controls
Description: For evaluating control of yellow fever mosquito (Aedes aegypti) the test unit consisted of 96-well-microtiter plates containing 200µl of tap water per well and 5-15 freshly hatched A. aegypti larvae.
The active compounds were formulated using a solution containing 75% (v/v) water and 25% (v/v) DMSO. Different concentrations of formulated compounds or mixtures were sprayed onto the insect diet at 2.5µl, using a custom-built micro atomizer, at two replications.
After application, microtiter plates were incubated at 28 ± 1°C, 80 ± 5 % RH for 2 days. Larval mortality was then visually assessed.

CO/N=C(\C)n1ncnc1C(C)NC(=O)c1cc(C(F)(F)F)cc(C(F)(F)F)c1 (stereo not shown) [I-4, N-[1-[2-[(E)-N-methoxy-C-methyl-carbonimidoyl]-1,2,4-triazol-3-yl]ethyl]-3,5-bis(trifluoromethyl)benzamide]
≥ 75%: mortality at 300 ppm [1] | mortality at 2500 ppm [2] | mortality at 2500 ppm [3] | mortality at 2500 ppm [4] | mortality at 300 ppm [5] | mortality at 2500 ppm [6]

CC(=NO)n1ncnc1C(C)NC(=O)c1cc(C(F)(F)F)cc(C(F)(F)F)c1 (stereo not shown) [I-1, N-[1-[2-[N-hydroxy-C-methyl-carbonimidoyl]-1,2,4-triazol-3-yl]ethyl]-3,5-bis(trifluoromethyl)benzamide]
≥ 75%: mortality at 300 ppm [1] | mortality at 2500 ppm [2] | mortality at 2500 ppm [3] | mortality at 2500 ppm [6]

CO/N=C(/C)n1ncnc1C(C)NC(=O)c1cc(C(F)(F)F)cc(C(F)(F)F)c1 (stereo not shown) [I-3, N-[1-[2-[(Z)-N-methoxy-C-methyl-carbonimidoyl]-1,2,4-triazol-3-yl]ethyl]-3,5-bis(trifluoromethyl)benzamide]
≥ 75%: mortality at 300 ppm [1] | mortality at 2500 ppm [2] | mortality at 2500 ppm [3] | mortality at 2500 ppm [4] | mortality at 300 ppm [5] | mortality at 2500 ppm [6]

Source: EP4119547A1, “TRIAZOLE COMPOUNDS FOR THE CONTROL OF INVERTEBRATE PESTS” (priority 2021, dated 2023)
